These results are taken from patent publication US8716297B2, “Chemical entities to be used for Wee1 inhibition for the treatment of cancer” (AbbVie Inc., priority 2011, dated 2014).

The target in the assay is T1, GST-tagged-Wee1 kinase (Homo sapiens, UniProt P30291).
T1 construct: purchased Carnabio 05-177
Description: Wee1 time-resolved fluorescence equilibrium binding assay (displacement of Oregon Green-labeled ATP-competitive probe). As to conditions: TR-FRET probe displacement; 2 nM GST-Wee1, 300 nM probe, 1 hour incubation; read-out: Wee-1 binding (Ki nM). As for the experimental part: Wee1 kinase was assayed using a time-resolved fluorescence equilibrium binding assay monitoring displacement of a rapidly reversible Oregon Green-labeled ATP-competitive kinase probe (N-(2-(2-(2-(4-(4-(5-chloro-4-(2-(1-hydroxycyclobutyl)thiazol-5-yl)-1H-pyrrolo[2,3-b]pyridin-2-yl)phenyl)piperazin-1-yl)ethoxy)ethoxy)ethyl)-2′,7′-difluoro-3′,6′-dihydroxy-3-oxo-3H-spiro[isobenzofuran-1,9′-xanthene]-5-carboxamide) by competitive Wee1 inhibitors.

Molecules are shown by their SMILES.

T1 sequence (P30291 whole entry): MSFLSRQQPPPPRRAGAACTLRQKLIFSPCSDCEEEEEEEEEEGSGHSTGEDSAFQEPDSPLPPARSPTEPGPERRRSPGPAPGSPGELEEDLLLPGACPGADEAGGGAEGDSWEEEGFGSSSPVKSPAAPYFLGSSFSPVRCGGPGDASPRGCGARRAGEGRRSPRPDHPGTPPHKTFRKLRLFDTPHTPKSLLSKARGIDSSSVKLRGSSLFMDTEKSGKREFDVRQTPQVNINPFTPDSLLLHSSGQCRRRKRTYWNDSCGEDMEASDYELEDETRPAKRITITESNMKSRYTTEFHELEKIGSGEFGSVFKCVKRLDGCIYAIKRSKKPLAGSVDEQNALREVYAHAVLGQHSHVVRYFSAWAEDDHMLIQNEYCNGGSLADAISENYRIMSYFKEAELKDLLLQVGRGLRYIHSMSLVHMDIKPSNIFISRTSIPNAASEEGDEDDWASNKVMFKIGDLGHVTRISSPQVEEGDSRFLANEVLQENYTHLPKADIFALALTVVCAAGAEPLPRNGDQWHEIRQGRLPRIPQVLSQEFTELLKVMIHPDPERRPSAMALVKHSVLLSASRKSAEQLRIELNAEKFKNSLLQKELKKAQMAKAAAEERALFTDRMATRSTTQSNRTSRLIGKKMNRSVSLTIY

Consider `COC(=O)c1ccc2c(c1)N(Cc1c(Cl)cccc1Cl)S(=O)(=O)c1cnc(Nc3ccc(N4CCN(C)CC4)cc3)nc1-2` [Example 95, methyl 6-(2,6-dichlorobenzyl)-2-{[4-(4-methylpiperazin-1-yl)phenyl]amino}-6H-pyrimido[5,4-c][2,1]benzothiazine-8-carboxylate 5,5-dioxide], for which the Ki was 591 nM. Then `C=CCN1c2ncccc2-c2nc(Nc3ccc(N4CCN(C)CC4)cc3)ncc2S1(=O)=O` [Example 40, 6-allyl-N-[4-(4-methylpiperazin-1-yl)phenyl]-6H-pyrido[2,3-c]pyrimido[4,5-e][1,2]thiazin-2-amine 5,5-dioxide], with 5 nM; and `C=CCN1c2ncccc2-c2nc(Nc3ccc(C4CCNCC4)cc3)ncc2S1(=O)=O` [Example 37, 6-allyl-N-[4-(piperidin-4-yl)phenyl]-6H-pyrido[2,3-c]pyrimido[4,5-e][1,2]thiazin-2-amine 5,5-dioxide], with 5 nM; and `CCCN1c2cc(C(=O)NC)ccc2-c2nc(Nc3ccc(N4CCN(C)CC4)cc3)ncc2S1(=O)=O` [Example 82, N-methyl-2-{[4-(4-methylpiperazin-1-yl)phenyl]amino}-6-propyl-6H-pyrimido[5,4-c][2,1]benzothiazine-8-carboxamide 5,5-dioxide], with 10 nM.

In the case of `C=CCN1c2ncccc2-c2nc(Nc3ccc4c(c3)N(C(C)=O)CC4)ncc2S1(=O)=O` [Example 35, 1-{6-[(6-allyl-5,5-dioxido-6H-pyrido[2,3-c]pyrimido[4,5-e][1,2]thiazin-2-yl)amino]-2,3-dihydro-1H-indol-1-yl}ethanone], the Ki worked out at 48 nM. Then `COC(=O)c1ccc2c(c1)N(c1ccccc1)S(=O)(=O)c1cnc(Nc3ccc(N4CCN(C)CC4)cc3)nc1-2` [Example 88, methyl 2-{[4-(4-methylpiperazin-1-yl)phenyl]amino}-6-phenyl-6H-pyrimido[5,4-c][2,1]benzothiazine-8-carboxylate 5,5-dioxide], with 2 nM; and `CCCN1c2cc(C(N)=O)ccc2-c2nc(Nc3ccc(N4CCN(C)CC4)cc3)ncc2S1(=O)=O` [Example 79, 2-{[4-(4-methylpiperazin-1-yl)phenyl]amino}-6-propyl-6H-pyrimido[5,4-c][2,1]benzothiazine-8-carboxamide 5,5-dioxide], with 6 nM.

Regarding `CCCN1c2cc(C(=O)NCCO)ccc2-c2nc(Nc3ccc(N4CCN(C)CC4)cc3)ncc2S1(=O)=O` [Example 84, N-(2-hydroxyethyl)-2-{[4-(4-methylpiperazin-1-yl)phenyl]amino}-6-propyl-6H-pyrimido[5,4-c][2,1]benzothiazine-8-carboxamide 5,5-dioxide], the Ki was 8 nM. Then `C=CCN1c2ccccc2-c2nc(Nc3ccccc3)ncc2S1(=O)=O` [Example 24, 6-allyl-N-phenyl-6H-pyrimido[5,4-c][2,1]benzothiazin-2-amine 5,5-dioxide], with 220 nM; and `CCCN1c2cc(-c3cccnc3)ccc2-c2nc(Nc3ccc(N4CCN(C)CC4)cc3)ncc2S1(=O)=O` [Example 69, N-[4-(4-methylpiperazin-1-yl)phenyl]-6-propyl-8-(pyridin-3-yl)-6H-pyrimido[5,4-c][2,1]benzothiazin-2-amine 5,5-dioxide], with 4 nM; and `C=CCN1c2ncccc2-c2nc(Nc3ccc(N4CCCN(C)CC4)c(C)c3)ncc2S1(=O)=O` [Example 53, 6-allyl-N-[3-methyl-4-(4-methyl-1,4-diazepan-1-yl)phenyl]-6H-pyrido[2,3-c]pyrimido[4,5-e][1,2]thiazin-2-amine 5,5-dioxide], with 1.1 nM.

Take `C=CCN1c2ccccc2-c2nc(Nc3ccc(N4CCOCC4)cc3)ncc2S1(=O)=O` [Example 16, 6-allyl-N-[4-(morpholin-4-yl)phenyl]-6H-pyrimido[5,4-c][2,1]benzothiazin-2-amine 5,5-dioxide]: the Ki was found to be 7 nM. Then `C=CCN1c2ccccc2-c2nc(Nc3ccc(C4CCN(C)CC4)cc3)ncc2S1(=O)=O` [Example 19, 6-allyl-N-[4-(1-methylpiperidin-4-yl)phenyl]-6H-pyrimido[5,4-c][2,1]benzothiazin-2-amine 5,5-dioxide], with 1.2 nM; and `C=CCN1c2ncccc2-c2nc(Nc3ccc(N4CCNCC4)c(C(F)(F)F)c3)ncc2S1(=O)=O` [Example 51, 6-allyl-N-[4-(piperazin-1-yl)-3-(trifluoromethyl)phenyl]-6H-pyrido[2,3-c]pyrimido[4,5-e][1,2]thiazin-2-amine 5,5-dioxide], with 14 nM; and `C=CCN1c2ccccc2-c2nc(Nc3ccc4c(c3)NCCC4)ncc2S1(=O)=O` [Example 30, 6-allyl-N-(1,2,3,4-tetrahydroquinolin-7-yl)-6H-pyrimido[5,4-c][2,1]benzothiazin-2-amine 5,5-dioxide], with 21 nM.

On to `C=CCN1c2ncccc2-c2nc(Nc3ccc(N4CCN(C)CC4)c(Cl)c3)ncc2S1(=O)=O` [Example 41, 6-allyl-N-[3-chloro-4-(4-methylpiperazin-1-yl)phenyl]-6H-pyrido[2,3-c]pyrimido[4,5-e][1,2]thiazin-2-amine 5,5-dioxide], for which the Ki is 2370 nM.

Regarding `C=CCN1c2ncccc2-c2nc(Nc3ccc(N4CCNCC4)c(C)c3)ncc2S1(=O)=O` [Example 42, 6-allyl-N-[3-methyl-4-(piperazin-1-yl)phenyl]-6H-pyrido[2,3-c]pyrimido[4,5-e][1,2]thiazin-2-amine 5,5-dioxide], the Ki was found to be 2 nM. Consider `CCCN1c2cc(C(=O)OC)ccc2-c2nc(Nc3ccc(N4CCN(C)CC4)cc3)ncc2S1(=O)=O` [Example 78, methyl 2-{[4-(4-methylpiperazin-1-yl)phenyl]amino}-6-propyl-6H-pyrimido[5,4-c][2,1]benzothiazine-8-carboxylate 5,5-dioxide], for which the Ki stood at 6 nM.

Regarding `COC(=O)c1ccc2c(c1)N(c1cc(C(F)(F)F)cc(C(F)(F)F)c1)S(=O)(=O)c1cnc(Nc3ccc(N4CCN(C)CC4)cc3)nc1-2` [Example 91, methyl 6-[3,5-bis(trifluoromethyl)phenyl]-2-{[4-(4-methylpiperazin-1-yl)phenyl]amino}-6H-pyrimido[5,4-c][2,1]benzothiazine-8-carboxylate 5,5-dioxide], the Ki stood at 2700 nM.

For the molecule `CCCN1c2cc(-n3cccc3)ccc2-c2nc(Nc3ccc(N4CCN(C)CC4)cc3)ncc2S1(=O)=O` [Example 93, N-[4-(4-methylpiperazin-1-yl)phenyl]-6-propyl-8-(1H-pyrrol-1-yl)-6H-pyrimido[5,4-c][2,1]benzothiazin-2-amine 5,5-dioxide], the Ki stood at 45 nM. Then `C=CCN1c2ccccc2-c2nc(Nc3ccc4c(c3)N(C(C)=O)CC4)ncc2S1(=O)=O` [Example 5, 1-{6-[(6-allyl-5,5-dioxido-6H-pyrimido[5,4-c][2,1]benzothiazin-2-yl)amino]-2,3-dihydro-1H-indol-1-yl}ethanone], with 9 nM; and `C=CCN1c2ccccc2-c2nc(Nc3ccc(-c4ccncc4)cc3)ncc2S1(=O)=O` [Example 7, 6-allyl-N-[4-(pyridin-4-yl)phenyl]-6H-pyrimido[5,4-c][2,1]benzothiazin-2-amine 5,5-dioxide], with 1230 nM. The figure for `C=CCN1c2ccccc2-c2nc(Nc3ccncc3)ncc2S1(=O)=O` [Example 27, 6-allyl-N-(pyridin-4-yl)-6H-pyrimido[5,4-c][2,1]benzothiazin-2-amine 5,5-dioxide] is 30 nM; for `C=CCN1c2ccccc2-c2nc(Nc3ccc(C4CCCCC4)cc3)ncc2S1(=O)=O` [Example 13, 6-allyl-N-(4-cyclohexylphenyl)-6H-pyrimido[5,4-c][2,1]benzothiazin-2-amine 5,5-dioxide] it is 2080 nM; for `CCCN1c2cc(C(=O)NCc3cccnc3)ccc2-c2nc(Nc3ccc(N4CCN(C)CC4)cc3)ncc2S1(=O)=O` [Example 87, 2-{[4-(4-methylpiperazin-1-yl)phenyl]amino}-6-propyl-N-(pyridin-3-ylmethyl)-6H-pyrimido[5,4-c][2,1]benzothiazine-8-carboxamide 5,5-dioxide] it is 5 nM. The figure for `C=CCN1c2ccccc2-c2nc(Nc3ccc(-c4nc5cnccc5[nH]4)cc3)ncc2S1(=O)=O` [Example 14, 6-allyl-N-[4-(1H-imidazo[4,5-c]pyridin-2-yl)phenyl]-6H-pyrimido[5,4-c][2,1]benzothiazin-2-amine 5,5-dioxide] is 1440 nM; for `CN1CCN(c2ccc(Nc3ncc4c(n3)-c3sccc3N(C)S4(=O)=O)cc2)CC1` [Example 55, 6-methyl-N-[4-(4-methylpiperazin-1-yl)phenyl]-6H-pyrimido[4,5-e]thieno[3,2-c][1,2]thiazin-2-amine 5,5-dioxide] it is 8 nM. For `C=CCN1c2ncccc2-c2nc(Nc3ccccc3)ncc2S1(=O)=O` [Example 32, 6-allyl-N-phenyl-6H-pyrido[2,3-c]pyrimido[4,5-e][1,2]thiazin-2-amine 5,5-dioxide], the Ki stood at 1450 nM. As for `C=CCN1c2ccccc2-c2nc(Nc3ccc4c(c3)CN(C)CC4(C)C)ncc2S1(=O)=O` [Example 22, 6-allyl-N-(2,4,4-trimethyl-1,2,3,4-tetrahydroisoquinolin-7-yl)-6H-pyrimido[5,4-c][2,1]benzothiazin-2-amine 5,5-dioxide], the Ki amounted to 1.7 nM.

On to `CCCN1c2ccc(-c3ccccc3CN(C)C)cc2-c2nc(Nc3ccc(N4CCN(C)CC4)cc3)ncc2S1(=O)=O` [Example 101, 9-{2-[(dimethylamino)methyl]phenyl}-N-[4-(4-methylpiperazin-1-yl)phenyl]-6-propyl-6H-pyrimido[5,4-c][2,1]benzothiazin-2-amine 5,5-dioxide], for which the Ki stood at 7.6 nM. The figure for `C=CCN1c2ncccc2-c2nc(Nc3ccc(N4CCOCC4)cc3)ncc2S1(=O)=O` [Example 52, 6-allyl-N-[4-(morpholin-4-yl)phenyl]-6H-pyrido[2,3-c]pyrimido[4,5-e][1,2]thiazin-2-amine 5,5-dioxide] is 12 nM.
